Source: publication PMC12207590, “Substrate Specificity of the Organic Cation Transporters MATE1 and MATE2K and Functional Overlap with OCT1 and OCT2” (Journal of Medicinal Chemistry, 2025)
Where two headings read alike, the source gives them in different places.

How the values were obtained:
[1] = target: T1, MATE1 (Homo sapiens, UniProt Q96FL8); experiment: Uptake ratio in MATE1-overexpressing HEK293 cells vs empty vector (2.5 μM, 1 min, HPLC-MS/MS); format: cell-based; parameters: key to MATE1 substrate*: 1 = substrate; 0 = no substrate; settings: for MATE1 ratio in this study: Table S1
T1 sequence (Q96FL8 1-570): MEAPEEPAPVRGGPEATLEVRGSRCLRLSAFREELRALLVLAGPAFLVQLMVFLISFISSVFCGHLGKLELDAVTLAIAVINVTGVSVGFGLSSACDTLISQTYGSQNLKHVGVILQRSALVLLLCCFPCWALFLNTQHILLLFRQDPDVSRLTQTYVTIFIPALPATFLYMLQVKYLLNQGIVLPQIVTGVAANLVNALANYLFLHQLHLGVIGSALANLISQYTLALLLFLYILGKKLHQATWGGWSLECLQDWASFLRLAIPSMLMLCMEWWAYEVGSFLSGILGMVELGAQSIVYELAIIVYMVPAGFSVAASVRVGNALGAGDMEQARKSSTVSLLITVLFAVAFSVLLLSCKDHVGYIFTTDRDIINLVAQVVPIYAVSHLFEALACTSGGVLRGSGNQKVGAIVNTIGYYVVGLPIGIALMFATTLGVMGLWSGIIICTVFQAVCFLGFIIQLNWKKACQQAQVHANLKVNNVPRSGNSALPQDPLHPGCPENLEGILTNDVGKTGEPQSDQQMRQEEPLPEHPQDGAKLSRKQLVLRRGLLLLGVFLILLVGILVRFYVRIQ

[2] = target: MATE2K (Homo sapiens, UniProt Q86VL8); experiment: Uptake ratio in MATE2K-overexpressing HEK293 cells vs empty vector (2.5 μM, 1 min, HPLC-MS/MS); format: cell-based; parameters: key to MATE2 substrate*: 1 = substrate; 0 = no substrate; settings: for MATE2K ratio in this study: Table S1
Chain of MATE2K (Q86VL8 1-566 isoform Q86VL8-3): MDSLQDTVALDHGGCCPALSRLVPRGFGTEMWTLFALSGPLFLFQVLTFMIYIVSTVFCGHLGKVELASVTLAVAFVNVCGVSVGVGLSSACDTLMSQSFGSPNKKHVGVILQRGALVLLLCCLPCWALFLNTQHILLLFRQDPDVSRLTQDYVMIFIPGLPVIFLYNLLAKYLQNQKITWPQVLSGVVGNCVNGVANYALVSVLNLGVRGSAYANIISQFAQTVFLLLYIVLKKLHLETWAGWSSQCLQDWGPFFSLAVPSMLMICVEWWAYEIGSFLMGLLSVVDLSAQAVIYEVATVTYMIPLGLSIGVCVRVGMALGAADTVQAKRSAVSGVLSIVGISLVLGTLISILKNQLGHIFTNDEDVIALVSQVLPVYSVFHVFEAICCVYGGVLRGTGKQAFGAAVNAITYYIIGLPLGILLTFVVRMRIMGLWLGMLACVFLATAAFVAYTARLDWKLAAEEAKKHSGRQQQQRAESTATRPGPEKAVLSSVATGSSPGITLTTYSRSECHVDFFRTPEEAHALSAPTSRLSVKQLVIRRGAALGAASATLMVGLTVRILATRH

[3] = fold uptake over empty vector, 2.5 μM, 1 min
[4] = mean ratio of uptake in MATE1-overexpressing HEK293 cells vs empty vector, 2.5 μM, 1 min
[5] = mean ratio of uptake in MATE2K-overexpressing HEK293 cells vs empty vector, 2.5 μM, 1 min
[6] = uptake ratio MATE1-overexpressing vs empty-vector HEK293 cells, 2.5 μM, 1 min, mean
[7] = uptake ratio MATE2K-overexpressing vs empty-vector HEK293 cells, 2.5 μM, 1 min, mean

O=S(=O)(c1cccc2cnccc12)N1CCCNCC1 [Fasudil]
MATE1 ratio [1, 3]: 1.50 | MATE2K ratio [2, 3]: 1.80

Cc1ccc(C23CNCC2C3)cc1 (stereo not drawn) [Bicifadine]
MATE1 ratio [1, 3]: 1.17 | MATE1 (uptake ratio) [1, 4]: 1.17 | MATE2K ratio [2, 3]: 1.31 | MATE2 (uptake ratio) [2, 5]: 1.31

CNCC(O)c1ccc(O)cc1.CNCC(O)c1ccc(O)cc1.O=C(O)C(O)C(O)C(=O)O (stereo not drawn) [Synephrine]
MATE1 [1]: 6.5 | MATE2 [2]: 1.04

CC1(C)S[C@@H]2[C@H](NC(=O)[C@H](N)c3ccc(O)cc3)C(=O)N2[C@H]1C(=O)O [Amoxicillin]
MATE1 ratio [1, 3]: 1.82 | MATE1 (uptake ratio) [1, 4]: 1.82 | MATE2K ratio [2, 3]: 0.67 | MATE2 (uptake ratio) [2, 5]: 0.67

NCC(O)c1ccc(O)cc1 (stereo not drawn) [Octopamine]
MATE1 ratio [1, 3]: 20.87 | MATE2K ratio [2, 3]: 1.43

CC/C(=C(\c1ccc(O)cc1)c1ccc(OCCNC)cc1)c1ccccc1 [Endoxifen]
MATE1 ratio [1, 3]: 1.30 | MATE2K ratio [2, 3]: 1.21

CNCC(O)c1ccccc1 (stereo not drawn) [Halostachine]
MATE1 ratio [1, 3]: 1.41 | MATE2K ratio [2, 3]: 1.52

CCN1CCCC1CNC(=O)c1cc(S(=O)(=O)CC)c(N)cc1OC [Amisulpride (S), Amisulpride]
MATE1 ratio [1, 3]: 13.70 | MATE1 (uptake ratio) [1, 4]: 13.7 | MATE2K ratio [2, 3]: 7.93 | MATE2 (uptake ratio) [2, 5]: 7.93

CC[C@H]1OC(=O)[C@H](C)[C@@H](O[C@H]2C[C@@](C)(OC)[C@@H](O)[C@H](C)O2)[C@H](C)[C@@H](O[C@@H]2O[C@H](C)C[C@H](N(C)C)[C@H]2O)[C@](C)(OC)C[C@@H](C)C(=O)[C@H](C)[C@@H](O)[C@]1(C)O [Clarithromycin]
MATE1 ratio [1, 3]: 1.21 | MATE1 (uptake ratio) [1, 4]: 1.21 | MATE2K ratio [2, 3]: 1.31 | MATE2 (uptake ratio) [2, 5]: 1.31

CC(C)(C)NCC(O)COc1ccccc1C#N (stereo not drawn) [Bunitrolol]
MATE1 ratio [1, 3]: 1.17 | MATE1 (uptake ratio) [1, 4]: 1.17 | MATE2K ratio [2, 3]: 1.31 | MATE2 (uptake ratio) [2, 5]: 1.31

O=C1CCC(N2C(=O)c3ccccc3C2=O)C(=O)N1 (stereo not drawn) [Thalidomide]
MATE1 [1, 6]: 0.85 | MATE2 [2, 7]: 2.02

COc1cc2c(cc1OC)-c1cc3ccc4c(c3c[n+]1CC2)OCO4 [Epiberberine]
MATE1 ratio [1]: 12.54 | MATE2K ratio [2]: 5.89

OC(CNCC(O)C1CCc2cc(F)ccc2O1)C1CCc2cc(F)ccc2O1 (stereo not drawn) [Nebivolol]
MATE1 ratio [1, 3]: 1.41 | MATE2K ratio [2, 3]: 1.45

CC(C)(C)NCC(O)c1cc(O)cc(O)c1 (stereo not drawn) [Terbutaline]
MATE1 [1, 6]: 6.74 | MATE2 [2, 7]: 7.04

CC(C)NCC(O)c1ccc(O)c(O)c1 (stereo not drawn) [Isoprenaline]
MATE1 ratio [1, 3]: 16.78 | MATE2K ratio [2, 3]: 4.67

Clc1ccc(COC(Cn2ccnc2)c2ccc(Cl)cc2Cl)c(Cl)c1 (stereo not drawn) [Miconazole]
MATE1 ratio [1, 3]: 1.33 | MATE2K ratio [2, 3]: 1.50

O=C(O[C@H]1C[N+]2(CCCOc3ccccc3)CCC1CC2)C(O)(c1cccs1)c1cccs1 [Aclidinium]
MATE1 ratio [1, 3]: 4.73 | MATE1 (uptake ratio) [1, 4]: 4.73 | MATE2K ratio [2, 3]: 1.17 | MATE2 (uptake ratio) [2, 5]: 1.17

C[N+]1(CCC(C(N)=O)(c2ccccc2)c2ccccc2)CCCCC1 [Fenpiverinium]
MATE1 ratio [1, 3]: 15.19 | MATE2K ratio [2, 3]: 1.35

CC(C)(C)NCC(O)c1ccccc1Cl (stereo not drawn) [Tulobuterol]
MATE1 [1, 6]: 1.31 | MATE2 [2, 7]: 1.74

C[N+]1(C)[C@@H]2C[C@@H](OC(=O)C(O)(c3cccs3)c3cccs3)C[C@H]1[C@@H]1O[C@@H]12 [tiotropium]
MATE1 [1]: 27.4 | MATE2 [2]: 1.94

OC(CCN1CCCCC1)(c1ccccc1)c1ccccc1 [Pridinol]
MATE1 ratio [1, 3]: 1.18 | MATE2K ratio [2, 3]: 1.27

CN(C)c1ccc2nc3ccc(=[N+](C)C)cc-3sc2c1 [Methylene blue]
MATE1 ratio [1]: 2.36 | MATE2K ratio [2]: 1.55

COc1cc(CCN)ccc1O [3-Methoxy-p-tyramine]
MATE1 (uptake ratio) [1]: 4.05 | MATE1 ratio [1]: 4.05 | MATE2 (uptake ratio) [2]: 1.39 | MATE2K ratio [2]: 1.39

NCCc1c[nH]c2ccc(O)cc12 [Serotonin]
MATE1 ratio [1, 3]: 12.11 | MATE1 [1, 6]: 12.11 | MATE2 [2]: 2.26 | MATE2K ratio [2]: 2.26

NCC(O)c1cccc(O)c1 (stereo not drawn) [Norphenylephrine]
MATE1 ratio [1, 3]: 26.13 | MATE2K ratio [2, 3]: 1.22

CN(C)CCC=C1c2ccccc2COc2ccccc21 [Doxepin (E), Doxepin]
MATE1 ratio [1, 3]: 1.26 | MATE2K ratio [2, 3]: 1.08

O=c1ncccn1[C@@H]1O[C@H](CO)[C@@H](O)[C@H]1O [Zebularine]
MATE1 substrate* ([1]; Table S4): 0 | MATE1 [1, 6]: 1.12 | MATE2 substrate* ([2]; Table S4): 0 | MATE2 [2, 7]: 0.9

Cn1nnc2c(C(N)=O)ncn2c1=O [Temozolomide]
MATE1 [1, 6]: 1.03 | MATE2 [2, 7]: 1.1

COc1ccc(CC(C)(C)NC[C@H](O)c2cc(O)cc3c2OCC(=O)N3)cc1 [Olodaterol]
MATE1 ratio [1, 3]: 3.34 | MATE2K ratio [2, 3]: 6.19

C[N+](C)(C)C[C@H](O)CC(=O)[O-] [Carnitine]
MATE1 (uptake ratio) [1]: 1.16 | MATE1 ratio [1]: 1.16 | MATE2 (uptake ratio) [2]: 1.13 | MATE2K ratio [2]: 1.13

COc1ccc(-n2nc(C(N)=O)c3c2C(=O)N(c2ccc(N4CCCCC4=O)cc2)CC3)cc1 [Apixaban]
MATE1 ratio [1, 3]: 1.24 | MATE1 (uptake ratio) [1, 4]: 1.24 | MATE2K ratio [2, 3]: 1.15 | MATE2 (uptake ratio) [2, 5]: 1.15

N=C(N)N1Cc2ccccc2C(O)C1 (stereo not drawn) [4-Hydroxydebrisoquine]
MATE1 ratio [1, 3]: 9.59 | MATE1 (uptake ratio) [1, 4]: 9.59 | MATE2K ratio [2, 3]: 3.34 | MATE2 (uptake ratio) [2, 5]: 3.34

Oc1ncnc2[nH]ncc12 [Allopurinol]
MATE1 ratio [1, 3]: 1.08 | MATE1 (uptake ratio) [1, 4]: 1.08 | MATE2K ratio [2, 3]: 0.85 | MATE2 (uptake ratio) [2, 5]: 0.85

CCOc1ccccc1OCC1CNCCO1 (stereo not drawn) [Viloxazine]
MATE1 [1]: 1.12 | MATE2 [2]: 1.38

Br.Cc1ncc(C[n+]2cccc(CCO)c2C)c(N)n1.[Br-] [Pyrithiamine]
MATE1 ratio [1, 3]: 20.40 | MATE1 [1, 6]: 20.4 | MATE2K ratio [2, 3]: 7.32 | MATE2 [2, 7]: 7.32

Nc1ccc(N)cc1 [p-Phenylenediamine]
MATE1 ratio [1]: 1.04 | MATE2K ratio [2]: 1.07

CNCC/C=C1/c2ccccc2CC(O)c2ccccc21 (stereo not drawn) [10-OH-Nortriptyline]
MATE1 (uptake ratio) [1]: 1.17 | MATE1 ratio [1]: 1.17 | MATE2 (uptake ratio) [2]: 1.14 | MATE2K ratio [2]: 1.14

COc1ccccc1N1CCN(CCCNc2cc(=O)n(C)c(=O)n2C)CC1 [Urapidil]
MATE1 [1, 6]: 1.19 | MATE2 [2, 7]: 1.17

CC(N)[C@H](O)c1ccc(O)c(O)c1 (stereo partly drawn) [Alpha-methylnorepinephrine (-), Alpha-methylnorepinephrine]
MATE1 (uptake ratio) [1]: 1.85 | MATE1 ratio [1]: 1.85 | MATE2 (uptake ratio) [2]: 0.72 | MATE2K ratio [2]: 0.72

COc1cc(CNC(=O)CCCC/C=C/C(C)C)ccc1O [Capsaicin]
MATE1 ratio [1, 3]: 1.18 | MATE1 (uptake ratio) [1, 4]: 1.18 | MATE2K ratio [2, 3]: 0.99 | MATE2 (uptake ratio) [2, 5]: 0.99

CC(C)c1cccc(C(C)C)c1O [Propofol]
MATE1 [1]: 0.64 | MATE1 ratio [1]: 0.64 | MATE2 [2]: 0.8 | MATE2K ratio [2]: 0.80

CC[C@@H]1C(=O)OC[C@@H]1Cc1cncn1C [Pilocarpine]
MATE1 ratio [1, 3]: 1.39 | MATE2K ratio [2, 3]: 1.39

CCCCCCCCc1ccc(CCC(N)(CO)CO)cc1 [Fingolimod]
MATE1 ratio [1, 3]: 1.12 | MATE2K ratio [2, 3]: 1.14

NCCc1cc(O)c(O)cc1O [6-Hydroxydopamine]
MATE1 (uptake ratio) [1]: 1.05 | MATE1 ratio [1]: 1.05 | MATE2 (uptake ratio) [2]: 1.24 | MATE2K ratio [2]: 1.24

CCc1nc(N)nc(N)c1-c1ccc(Cl)cc1 [Pyrimethamine]
MATE1 ratio [1, 3]: 1.17 | MATE1 [1, 6]: 1.17 | MATE2K ratio [2, 3]: 1.10 | MATE2 [2, 7]: 1.1

CN1CC(=O)NC1=N [Creatinine]
MATE1 ratio in this study ([1]; 2.5 μM, 1 min): 0.83 | MATE1 ratio [1, 3]: 0.83 | MATE2K ratio in this study ([2]; 2.5 μM, 1 min): 1.07 | MATE2K ratio [2, 3]: 1.07

CNS(=O)(=O)CCc1ccc2[nH]cc(C3CCN(C)CC3)c2c1 [Naratriptan]
MATE1 ratio [1, 3]: 10.81 | MATE2K ratio [2, 3]: 8.34

C[C@H](NCCc1ccc(O)cc1)[C@H](O)c1ccc(O)cc1 (racemic) [Ritodrine]
MATE1 ratio [1, 3]: 8.03 | MATE1 [1, 6]: 8.03 | MATE2K ratio [2, 3]: 2.23 | MATE2 [2, 7]: 2.23

COc1ccc([C@@H](CN(C)C)C2(O)CCCCC2)cc1 [Venlafaxine (S)]
MATE1 [1]: 1.22 | MATE2 [2]: 1.44

CC1(C)C[C@@H]1C(=O)N/C(=C\CCCCSC[C@H](N)C(=O)O)C(=O)O [Cilastatin]
MATE1 (uptake ratio) [1]: 1.13 | MATE1 ratio [1]: 1.13 | MATE2 (uptake ratio) [2]: 0.96 | MATE2K ratio [2]: 0.96

CC(C)NC(=N)NC(=N)Nc1ccc(Cl)cc1 [Proguanil]
MATE1 ratio in this study ([1]; 2.5 μM, 1 min): 5.54 | MATE1 ratio [1, 3]: 5.54 | MATE2K ratio in this study ([2]; 2.5 μM, 1 min): 3.98 | MATE2K ratio [2, 3]: 3.98
